Laboratory results taken from patent publication EP2350075B1, “SUBSTITUTED IMIDAZO[1,2B]PYRIDAZINE COMPOUNDS AS TRK KINASE INHIBITORS” (Array Biopharma, Inc., priority 2008, dated 2010).

biological target: T1, human TrkA (Homo sapiens, UniProt P04629); experiment: TrkA ELISA assay; assay type: biochemical; details: 2.5 nM TrkA, 500 µM ATP, 25 minutes at ambient temperature; read-out: TrkA Elisa Enzyme IC50
T1 construct: histidine-tagged recombinant human TrkA, cytoplasmic domain; His tag; purchased Invitrogen Corp
Description: An enzyme-linked immunosorbant assay (ELISA) was used to assess TrkA kinase activity in the presence of inhibitors. […] The assay buffer consisted of 25 mM MOPS pH 7.5, 0.005% (v/v) Triton X-100 and 5 mM MgCl2. The reaction mixture was removed from the plate by washing with PBS containing 0.1% (v/v) Tween 20. […] After the addition of 1M phosphoric acid, the chromogenic substrate color intensity was quantitated via absorbance at 450 nm. IC50 values were calculated using either a 4 or 5-parameter logistic curve fit.

T1 sequence (P04629 440-796 limits assumed): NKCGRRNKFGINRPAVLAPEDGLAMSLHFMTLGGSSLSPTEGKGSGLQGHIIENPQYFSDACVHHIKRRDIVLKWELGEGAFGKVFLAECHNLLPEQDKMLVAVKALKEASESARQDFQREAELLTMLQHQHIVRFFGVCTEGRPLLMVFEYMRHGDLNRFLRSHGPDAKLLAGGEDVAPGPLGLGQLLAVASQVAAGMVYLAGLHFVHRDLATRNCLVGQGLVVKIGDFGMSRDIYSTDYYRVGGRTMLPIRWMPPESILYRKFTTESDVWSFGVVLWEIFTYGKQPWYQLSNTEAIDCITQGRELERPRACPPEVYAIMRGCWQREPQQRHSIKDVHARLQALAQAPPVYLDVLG

IC50 [µM] | Compound
0.0102 | Cn1cc(C(=O)Nc2cnc3ccc(N4CCC[C@@H]4c4cc(F)ccc4F)nn23)ccc1=O [Example 56, (R)-N-(6-(2-(2,5-difluorophenyl)pyrrolidin-1-yl)imidazo[1,2-b]pyridazin-3-yl)-1-methyl-6-oxo-1,6-dihydropyridine-3-carboxamide]
0.0055 | COc1ccc(NC(=O)Nc2cnc3ccc(N4CCC[C@@H]4c4cc(F)ccc4F)nn23)cc1 [Example 30, (R)-1-(6-(2-(2,5-difluorophenyl)pyrrolidin-1-yl)imidazo[1,2-b]pyridazin-3-yl)-3-(4-methoxyphenyl)urea]
0.508 | O=C(Nc1cccc(C(F)(F)F)c1)Nc1cnc2ccc(N3CCC[C@@H]3c3cc(F)ccc3F)nn12 [Example 8, (R)-1-(6-(2-(2,5-difluorophenyl)pyrrolidin-1-yl)imidazo[1,2-b]pyridazin-3-yl)-3-(3-(trifluoromethyl)phenyl)urea]
0.0023 | Cn1nc(C(=O)Nc2cnc3ccc(N4CCC[C@@H]4c4cc(F)ccc4F)nn23)ccc1=O [Example 57, (R)-N-(6-(2-(2,5-difluorophenyl)pyrrolidin-1-yl)imidazo[1,2-b]pyridazin-3-yl)-1-methyl-6-oxo-1,6-dihydropyridazine-3-carboxamide]
0.0394 | O=C(Nc1ccc(Cl)cc1Cl)Nc1cnc2ccc(N3CCC[C@@H]3c3cc(F)ccc3F)nn12 [Example 7, (R)-1-(2,4-dichlorophenyl)-3-(6-(2-(2,5-difluorophenyl)pyrrolidin-1-yl)imidazo[1,2-b]pyridazin-3-yl)urea]
0.0021 | CS(=O)(=O)Nc1ccc(C(=O)Nc2cnc3ccc(N4CCC[C@@H]4c4cc(F)ccc4F)nn23)cc1 [Example 4, (R)-N-(6-(2-(2,5-difluorophenyl)pyrrolidin-1-yl)imidazo[1,2-b]pyridazin-3-yl)-4-(methylsulfonamido)benzamide]
0.0742 | N#Cc1cccc(NC(=O)Nc2cnc3ccc(N4CCC[C@@H]4c4cc(F)ccc4F)nn23)c1 [Example 5, (R)-1-(3-cyanophenyl)-3-(6-(2-(2,5-difluorophenyl)pyrrolidin-1-yl)imidazo[1,2-b]pyridazin-3-yl)urea]
0.216 | O=C(Nc1cnc2ccc(N3CCCCC3c3cccc(F)c3)nn12)N1CC(O)C1 (stereo not drawn) [Example 43, N-(6-(2-(3-fluorophenyl)piperidin-1-yl)imidazo[1,2-b]pyridazin-3-yl)-3-hydroxyazetidine-1-carboxamide]
0.0083 | CC(C)(C)OC(=O)N1CCN(C(=O)Nc2cnc3ccc(N4CCC[C@@H]4c4cc(F)ccc4F)nn23)CC1(C)C [Example 48, (R)-tert-butyl 4-(6-(2-(2,5-difluorophenyl)pyrrolidin-1-yl)imidazo[1,2-b]pyridazin-3-ylcarbamoyl)-2,2-dimethylpiperazine-1-carboxylate]
0.176 | COc1cc(NC(=O)Nc2cnc3ccc(N4CCC[C@@H]4c4cc(F)ccc4F)nn23)cc(OC)c1OC [Example 32, (R)-1-(6-(2-(2,5-difluorophenyl)pyrrolidin-1-yl)imidazo[1,2-b]pyridazin-3-yl)-3-(3,4,5-trimethoxyphenyl)urea]
0.901 | Cc1noc(C)c1NC(=O)Nc1cnc2ccc(N3CCC[C@@H]3c3cc(F)ccc3F)nn12 [Example 33, (R)-1-(6-(2-(2,5-difluorophenyl)pyrrolidin-1-yl)imidazo[1,2-b]pyridazin-3-yl)-3-(3,5-dimethylisoxazol-4-yl)urea]
0.0107 | N#Cc1ccc(NC(=O)Nc2cnc3ccc(N4CCC[C@@H]4c4cc(F)ccc4F)nn23)cc1 [Example 6, (R)-1-(4-cyanophenyl)-3-(6-(2-(2,5-difluorophenyl)pyrrolidin-1-yl)imidazo[1,2-b]pyridazin-3-yl)urea]
